Entries after “also recorded” stand apart in the source; their conditions may differ.
Key:
O-GlcNAcase = target: T1, O-GlcNAcase (Homo sapiens, UniProt O60502); test: Assay for determination of K1 values for inhibition of O-GlcNAcase activity; assay type: biochemical; details: pNP-GlcNAc 0.5 mM, PBS buffer pH 7.4, 37° C., Dixon plots
T1 sequence (O60502 1-916): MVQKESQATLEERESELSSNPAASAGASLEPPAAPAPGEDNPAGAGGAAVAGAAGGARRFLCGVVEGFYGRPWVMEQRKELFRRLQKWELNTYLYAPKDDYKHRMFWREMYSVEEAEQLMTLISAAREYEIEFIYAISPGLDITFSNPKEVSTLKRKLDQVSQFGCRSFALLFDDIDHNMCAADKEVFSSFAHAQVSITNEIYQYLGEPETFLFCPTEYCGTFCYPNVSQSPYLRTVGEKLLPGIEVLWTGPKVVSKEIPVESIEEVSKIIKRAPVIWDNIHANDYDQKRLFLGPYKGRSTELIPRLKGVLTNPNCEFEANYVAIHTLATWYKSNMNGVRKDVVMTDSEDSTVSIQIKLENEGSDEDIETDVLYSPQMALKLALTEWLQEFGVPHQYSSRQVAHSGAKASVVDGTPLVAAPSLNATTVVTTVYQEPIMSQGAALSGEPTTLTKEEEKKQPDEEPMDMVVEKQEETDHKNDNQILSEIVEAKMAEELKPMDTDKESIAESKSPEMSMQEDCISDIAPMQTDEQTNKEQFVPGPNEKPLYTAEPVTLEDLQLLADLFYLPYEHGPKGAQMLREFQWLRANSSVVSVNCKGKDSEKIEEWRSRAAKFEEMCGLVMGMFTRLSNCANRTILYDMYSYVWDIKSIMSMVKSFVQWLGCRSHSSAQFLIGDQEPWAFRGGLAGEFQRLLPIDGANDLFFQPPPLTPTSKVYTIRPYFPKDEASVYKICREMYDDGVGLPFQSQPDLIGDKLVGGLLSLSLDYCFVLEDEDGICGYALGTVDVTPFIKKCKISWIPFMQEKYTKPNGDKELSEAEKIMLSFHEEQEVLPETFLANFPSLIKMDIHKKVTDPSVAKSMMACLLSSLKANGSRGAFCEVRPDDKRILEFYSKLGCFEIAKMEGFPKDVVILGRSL
Method: Assay for Determination of […] for Inhibition of O-GlcNAcase Activity Experimental procedure for kinetic analyses: Enzymatic reactions were carried out in PBS buffer (pH 7.4) using pNP-GlcNAc as a substrate (0.5 mM) and monitored continuously at 37° C. at 400 nm using a Cary 3E UV-VIS spectrophotometer equipped with a Peltier temperature controller. Reactions were pre-heated in a 500 μl, quartz cuvette for approximately 5 minutes followed by addition of 10 μL enzyme via syringe (final enzyme concentration 0.002 mg/mL). Reaction velocities were determined by linear regression of the linear region of the reaction progress curve between the first and third minutes. An inhibitor concentration range of ⅕ to 5 times K1 was used in each case. […] All K1 values are determined using linear regression of Dixon plots.

3T3-L1 cells = test: Western blot of cellular levels of O-GlcNAc-modified proteins in 3T3-L1 cells; assay type: cell-based; details: 100 μM, 16 hours, anti-O-GlcNAc mAb CTD110.6, compared to control
Method: FIGS. 1A-B show Western blots of proteins from 3T3-L1 cells cultured for 16 hours in the presence or absence of 100 μM of Compound 1 (Table 1). Incubation of 3T3-L1 cells with Compound 1 causes an increase in cellular levels of O-GlcNAc-modified proteins; plus signs (“+”) indicate presence of Compound 1, while minus signs (“−”) indicate absence of Compound 1. FIG. 1A: Western blot analysis of cellular levels of O-GlcNAc-modified proteins using anti-O-GlcNAc MAb CTD 110.6 followed by an anti-mouse IgG-HRP conjugate.
Western Blot Analyses: 3T3-L1 adipocytes were treated with Compound 1 at 100 μM for 16 hours. Cells were harvested by adding 400 μL of 1% SDS with 50 mM beta-ME, boiling this for 10 minutes, using these lysates in subsequent Western blots. Briefly, samples were separated by SDS-PAGE (10% gels), transferred to nitrocellulose membrane (Bio-Rad), blocked for one hour at room temperature (RT) with 1% bovine serum albumin (BSA) in PBS containing 0.1% Tween-20 (PBS-T) and then subsequently probed with the appropriate primary antibody delivered in 1% BSA in PBS-T for overnight at 4° C. […]

`CC(=O)N[C@H]1CN2CC[C@H](O)[C@@H]2[C@@H](O)[C@@H]1O` [Compound 1] was tested, and the Ki (O-GlcNAcase) was 670 nM and the “cellular levels of O-GlcNAc-modified proteins” value (3T3-L1 cells) was “Marked increases; also recorded: increase”.
